Laboratory results from PubChem BioAssay AID2060907 (Molecular Pharmacology Branch, DTP, NCI, 2025).

System: 388556-164-R-J1-PDC complex spheroid viability
Experiment: Anticancer human tumor 388556-164-R-J1-PDC patient-derived colon adenocarcinoma cell line growth inhibition [RAS]
Conditions: for viability, T/C: stronger effect = lower value; active means viability on the fitted dose curve at most 10% of control; inactive means the rest
Outline: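 Multi-cell-type spheroids: tumor cells plus HUVEC endothelial cells and mesenchymal stem cells. RAS-pathway inhibitors were combined with targeted agents, each dosed in half-log steps down from clinical Cmax, or from 10 microM when Cmax was unknown.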

[1] = curve of first compound, second compound 0.000949 µM
[2] = curve of first compound, second compound 0.003 µM
[3] = curve of first compound, second compound 0.00949 µM
[4] = curve of first compound, second compound 0.03 µM
[5] = curve of first compound, second compound 0.0949 µM
[6] = curve of first compound, second compound 0.3 µM
[7] = second compound 0.000949 µM, first compound 0.0316 µM
[8] = second compound 0.000949 µM, first compound 0.1 µM
[9] = second compound 0.000949 µM, first compound 0.316 µM
[10] = second compound 0.000949 µM, first compound 1 µM
[11] = second compound 0.003 µM, first compound 0.0316 µM
[12] = second compound 0.003 µM, first compound 0.1 µM
[13] = second compound 0.003 µM, first compound 0.316 µM
[14] = second compound 0.003 µM, first compound 1 µM
[15] = second compound 0.00949 µM, first compound 0.0316 µM
[16] = second compound 0.00949 µM, first compound 0.1 µM
[17] = second compound 0.00949 µM, first compound 0.316 µM
[18] = second compound 0.00949 µM, first compound 1 µM
[19] = second compound 0.03 µM, first compound 0.0316 µM
[20] = second compound 0.03 µM, first compound 0.1 µM
[21] = second compound 0.03 µM, first compound 0.316 µM
[22] = second compound 0.03 µM, first compound 1 µM
[23] = second compound 0.0949 µM, first compound 0.0316 µM
[24] = second compound 0.0949 µM, first compound 0.1 µM
[25] = second compound 0.0949 µM, first compound 0.316 µM
[26] = second compound 0.0949 µM, first compound 1 µM
[27] = second compound 0.3 µM, first compound 0.0316 µM
[28] = second compound 0.3 µM, first compound 0.1 µM
[29] = second compound 0.3 µM, first compound 0.316 µM
[30] = second compound 0.3 µM, first compound 1 µM
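Further: spheroids exposed to compound for 7 days before readout.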
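Wherever viability, T/C is given: 100% = DMSO vehicle control luminescence.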

CC(Nc1ccc2c(c1)OCCn1cc(N3C(=O)OCC3C(F)F)nc1-2)C(N)=O (stereo not drawn) + C=CC(=O)N1CCN(c2nc(OCC3CCCN3C)nc3c(F)c(-c4nc(N)cc(C)c4C(F)(F)F)c(Cl)cc23)C(C)C1
> 10 µM: IC50 (curve of first compound, second compound 0.00316 µM) | IC50 (curve of first compound, second compound 0.01 µM) | IC50 (curve of first compound, second compound 0.0316 µM) | IC50 (curve of first compound, second compound 0.1 µM) | IC50 (curve of first compound, second compound 0.316 µM) | IC50 (curve of first compound, second compound 1 µM)
inactive: viability, T/C (second compound 0.00316 µM, first compound 0.0316 µM) 108% | viability, T/C (second compound 0.00316 µM, first compound 0.1 µM) 96.9% | viability, T/C (second compound 0.00316 µM, first compound 0.316 µM) 88.6% | viability, T/C (second compound 0.00316 µM, first compound 1 µM) 84.2% | viability, T/C (second compound 0.00316 µM, first compound 3.16 µM) 69.8% | viability, T/C (second compound 0.00316 µM, first compound 10 µM) 71.7% | viability, T/C (second compound 0.01 µM, first compound 0.0316 µM) 103% | viability, T/C (second compound 0.01 µM, first compound 0.1 µM) 94.4% | viability, T/C (second compound 0.01 µM, first compound 0.316 µM) 85% | viability, T/C (second compound 0.01 µM, first compound 1 µM) 77.1% | viability, T/C (second compound 0.01 µM, first compound 3.16 µM) 74% | viability, T/C (second compound 0.01 µM, first compound 10 µM) 63.3% | viability, T/C (second compound 0.0316 µM, first compound 0.0316 µM) 109% | viability, T/C (second compound 0.0316 µM, first compound 0.1 µM) 98.9% | viability, T/C (second compound 0.0316 µM, first compound 0.316 µM) 92.1% | viability, T/C (second compound 0.0316 µM, first compound 1 µM) 76% | viability, T/C (second compound 0.0316 µM, first compound 3.16 µM) 81.5% | viability, T/C (second compound 0.0316 µM, first compound 10 µM) 65.5% | viability, T/C (second compound 0.1 µM, first compound 0.0316 µM) 110% | viability, T/C (second compound 0.1 µM, first compound 0.1 µM) 88% | viability, T/C (second compound 0.1 µM, first compound 0.316 µM) 83% | viability, T/C (second compound 0.1 µM, first compound 1 µM) 77.2% | viability, T/C (second compound 0.1 µM, first compound 3.16 µM) 74.8% | viability, T/C (second compound 0.1 µM, first compound 10 µM) 68.1% | viability, T/C (second compound 0.316 µM, first compound 0.0316 µM) 105% | viability, T/C (second compound 0.316 µM, first compound 0.1 µM) 114% | viability, T/C (second compound 0.316 µM, first compound 0.316 µM) 85.4% | viability, T/C (second compound 0.316 µM, first compound 1 µM) 77.8% | viability, T/C (second compound 0.316 µM, first compound 3.16 µM) 69.9% | viability, T/C (second compound 0.316 µM, first compound 10 µM) 64.4% | viability, T/C (second compound 1 µM, first compound 0.0316 µM) 99.4% | viability, T/C (second compound 1 µM, first compound 0.1 µM) 88.7% | viability, T/C (second compound 1 µM, first compound 0.316 µM) 84.1% | viability, T/C (second compound 1 µM, first compound 1 µM) 84.1% | viability, T/C (second compound 1 µM, first compound 3.16 µM) 75.3% | viability, T/C (second compound 1 µM, first compound 10 µM) 65.7%

Nc1ccn(C2OC(CO)C(O)C2(F)F)c(=O)n1 (stereo not drawn)
inactive: viability, T/C (compound 0.00316 µM) 97.9% [middle of 4 runs] | viability, T/C (compound 0.01 µM) 93.1% [middle of 4 runs] | viability, T/C (compound 0.0316 µM) 81.8% [middle of 4 runs] | viability, T/C (compound 0.1 µM) 79% [middle of 4 runs] | viability, T/C (compound 0.316 µM) 74.7% [middle of 4 runs] | viability, T/C (compound 1 µM) 70.2% [middle of 4 runs]
> 1 µM: IC50 (curve of compound)

Cc1nc(N2CCC3(CC2)COC(C)C3N)c(CO)nc1Sc1ccnc(N)c1Cl (stereo not drawn) + CCn1c(-c2cc(N3CCN(C)CC3)cnc2C(C)OC)c2c3cc(ccc31)-c1csc(n1)CC(NC(=O)C1CC1C)C(=O)N1CCCC(N1)C(=O)OCC(C)(C)C2
inactive: viability, T/C [7] 84.3% | viability, T/C [8] 83.6% | viability, T/C [9] 60.2% | viability, T/C [10] 47.5% | viability, T/C (second compound 0.000949 µM, first compound 3.16 µM) 43.1% | viability, T/C (second compound 0.000949 µM, first compound 10 µM) 34.3% | viability, T/C [11] 81.2% | viability, T/C [12] 70.3% | viability, T/C [13] 57.7% | viability, T/C [14] 45.8% | viability, T/C (second compound 0.003 µM, first compound 3.16 µM) 39.2% | viability, T/C (second compound 0.003 µM, first compound 10 µM) 32.8% | viability, T/C [15] 68.7% | viability, T/C [16] 53.4% | viability, T/C [17] 52.5% | viability, T/C [18] 36.6% | viability, T/C (second compound 0.00949 µM, first compound 3.16 µM) 35.1% | viability, T/C (second compound 0.00949 µM, first compound 10 µM) 29.7% | viability, T/C [19] 56.7% | viability, T/C [20] 45.6% | viability, T/C [21] 39.2% | viability, T/C [22] 33.4% | viability, T/C (second compound 0.03 µM, first compound 3.16 µM) 29.9% | viability, T/C (second compound 0.03 µM, first compound 10 µM) 23.5% | viability, T/C [23] 40.6% | viability, T/C [24] 37.2% | viability, T/C [25] 30.9% | viability, T/C [26] 26.3% | viability, T/C (second compound 0.0949 µM, first compound 3.16 µM) 25.9% | viability, T/C (second compound 0.0949 µM, first compound 10 µM) 22.8% | viability, T/C [27] 28.8% | viability, T/C [28] 30.6% | viability, T/C [29] 25.4% | viability, T/C [30] 25.7% | viability, T/C (second compound 0.3 µM, first compound 3.16 µM) 24% | viability, T/C (second compound 0.3 µM, first compound 10 µM) 20%
0.0676 µM: IC50 [4]
0.233 µM: IC50 [3]
0.774 µM: IC50 [1]
< 0.0316 µM: IC50 [5] | IC50 [6]
0.694 µM: IC50 [2]

C=CC(=O)Nc1cc(Nc2nccc(-c3cn(C)c4ccccc34)n2)c(OC)cc1N(C)CCN(C)C + CCn1c(-c2cc(N3CCN(C)CC3)cnc2C(C)OC)c2c3cc(ccc31)-c1csc(n1)CC(NC(=O)C1CC1C)C(=O)N1CCCC(N1)C(=O)OCC(C)(C)C2
0.416 µM: IC50 [3]
inactive: viability, T/C (second compound 0.000949 µM, first compound 0.00316 µM) 92.8% | viability, T/C (second compound 0.000949 µM, first compound 0.01 µM) 92.1% | viability, T/C [7] 93.5% | viability, T/C [8] 79.8% | viability, T/C [9] 60.4% | viability, T/C [10] 46.4% | viability, T/C (second compound 0.003 µM, first compound 0.00316 µM) 91.7% | viability, T/C (second compound 0.003 µM, first compound 0.01 µM) 90.3% | viability, T/C [11] 75.3% | viability, T/C [12] 74% | viability, T/C [13] 56.4% | viability, T/C [14] 38.1% | viability, T/C (second compound 0.00949 µM, first compound 0.00316 µM) 79.2% | viability, T/C (second compound 0.00949 µM, first compound 0.01 µM) 78.9% | viability, T/C [15] 65.8% | viability, T/C [16] 66.4% | viability, T/C [17] 60.5% | viability, T/C [18] 28.3% | viability, T/C (second compound 0.03 µM, first compound 0.00316 µM) 62.1% | viability, T/C (second compound 0.03 µM, first compound 0.01 µM) 50.8% | viability, T/C [19] 54.9% | viability, T/C [20] 45.8% | viability, T/C [21] 36.1% | viability, T/C [22] 27.3% | viability, T/C (second compound 0.0949 µM, first compound 0.00316 µM) 39.4% | viability, T/C (second compound 0.0949 µM, first compound 0.01 µM) 42.7% | viability, T/C [23] 46.8% | viability, T/C [24] 33.1% | viability, T/C [25] 28.2% | viability, T/C [26] 22.8% | viability, T/C (second compound 0.3 µM, first compound 0.00316 µM) 32.2% | viability, T/C (second compound 0.3 µM, first compound 0.01 µM) 28.5% | viability, T/C [27] 30.8% | viability, T/C [28] 25.1% | viability, T/C [29] 25.7% | viability, T/C [30] 24%
0.745 µM: IC50 [1]
< 0.00316 µM: IC50 [5] | IC50 [6]
0.0418 µM: IC50 [4]
0.48 µM: IC50 [2]
